± gives the expanded uncertainty stated by the source.
Assay: xn = mol fraction of the nth substance listed
Conditions: 100 kPa, Liquid; for viscosity: Falling or rolling sphere viscometry; for mass density: Vibrating tube method

OC1CCCC1 [cyclopentanol] + CC1CCCCC1
Conditions	mass density [kg/m3]	viscosity [mPa·s]
293.15 K, x2 = 0	946.99 ± 1.5	11.88 ± 0.25
293.15 K, x2 = 0.0995	924.17 ± 1.5	7.639 ± 0.16
293.15 K, x2 = 0.2005	902.36 ± 1.4	4.929 ± 0.11
293.15 K, x2 = 0.2971	882.38 ± 1.4	3.505 ± 0.076
293.15 K, x2 = 0.4001	862.34 ± 1.4	2.41 ± 0.052
293.15 K, x2 = 0.5014	843.89 ± 1.4	1.793 ± 0.039
293.15 K, x2 = 0.5994	827.06 ± 1.3	1.396 ± 0.03
293.15 K, x2 = 0.6828	813.6 ± 1.3	1.166 ± 0.025
293.15 K, x2 = 0.7949	796.76 ± 1.3	0.96 ± 0.021
293.15 K, x2 = 0.8975	782.42 ± 1.3	0.826 ± 0.018
298.15 K, x2 = 0	943.05 ± 1.5	9.722 ± 0.21
298.15 K, x2 = 0.0995	920.12 ± 1.5	6.316 ± 0.14
298.15 K, x2 = 0.2005	898.22 ± 1.4	4.183 ± 0.089
298.15 K, x2 = 0.2971	878.17 ± 1.4	3.03 ± 0.065
298.15 K, x2 = 0.4001	858.07 ± 1.4	2.123 ± 0.045
298.15 K, x2 = 0.5014	839.58 ± 1.4	1.602 ± 0.034
298.15 K, x2 = 0.5994	822.73 ± 1.3	1.268 ± 0.027
298.15 K, x2 = 0.6828	809.25 ± 1.3	1.071 ± 0.023
298.15 K, x2 = 0.7949	792.38 ± 1.3	0.89 ± 0.019
298.15 K, x2 = 0.8975	778.04 ± 1.3	0.772 ± 0.017
303.15 K, x2 = 0	939.05 ± 1.5	8.068 ± 0.17
303.15 K, x2 = 0.0995	916.02 ± 1.5	5.48 ± 0.12
303.15 K, x2 = 0.2005	894.03 ± 1.4	3.587 ± 0.077
303.15 K, x2 = 0.2971	873.91 ± 1.4	2.644 ± 0.057
303.15 K, x2 = 0.4001	853.76 ± 1.4	1.885 ± 0.04
303.15 K, x2 = 0.5014	835.24 ± 1.3	1.445 ± 0.031
303.15 K, x2 = 0.5994	818.37 ± 1.3	1.16 ± 0.025
303.15 K, x2 = 0.6828	804.87 ± 1.3	0.989 ± 0.021
303.15 K, x2 = 0.7949	787.97 ± 1.3	0.827 ± 0.018
303.15 K, x2 = 0.8975	773.63 ± 1.2	0.722 ± 0.016
308.15 K, x2 = 0	935 ± 1.5	7.077 ± 0.15
308.15 K, x2 = 0.0995	911.87 ± 1.5	4.66 ± 0.099
308.15 K, x2 = 0.2005	889.79 ± 1.4	3.099 ± 0.066
308.15 K, x2 = 0.2971	869.61 ± 1.4	2.324 ± 0.05
308.15 K, x2 = 0.4001	849.41 ± 1.4	1.685 ± 0.036
308.15 K, x2 = 0.5014	830.86 ± 1.3	1.312 ± 0.028
308.15 K, x2 = 0.5994	813.97 ± 1.3	1.065 ± 0.023
308.15 K, x2 = 0.6828	800.45 ± 1.3	0.916 ± 0.02
308.15 K, x2 = 0.7949	783.54 ± 1.3	0.771 ± 0.017
308.15 K, x2 = 0.8975	769.19 ± 1.2	0.677 ± 0.015
313.15 K, x2 = 0	930.91 ± 1.5	6.04 ± 0.13
313.15 K, x2 = 0.0995	907.67 ± 1.5	4.046 ± 0.086
313.15 K, x2 = 0.2005	885.51 ± 1.4	2.695 ± 0.058
313.15 K, x2 = 0.2971	865.27 ± 1.4	2.055 ± 0.044
313.15 K, x2 = 0.4001	845.02 ± 1.4	1.514 ± 0.032
313.15 K, x2 = 0.5014	826.44 ± 1.3	1.196 ± 0.026
313.15 K, x2 = 0.5994	809.53 ± 1.3	0.982 ± 0.021
313.15 K, x2 = 0.6828	796 ± 1.3	0.851 ± 0.018
313.15 K, x2 = 0.7949	779.07 ± 1.3	0.721 ± 0.016
313.15 K, x2 = 0.8975	764.73 ± 1.2	0.636 ± 0.014
318.15 K, x2 = 0	–	5.19 ± 0.11
318.15 K, x2 = 0.0995	–	3.487 ± 0.074
318.15 K, x2 = 0.2005	–	2.361 ± 0.05
318.15 K, x2 = 0.2971	–	1.828 ± 0.039
318.15 K, x2 = 0.4001	–	1.368 ± 0.029
318.15 K, x2 = 0.5014	–	1.093 ± 0.023
318.15 K, x2 = 0.5994	–	0.907 ± 0.019
318.15 K, x2 = 0.6828	–	0.793 ± 0.017
318.15 K, x2 = 0.7949	–	0.677 ± 0.015
318.15 K, x2 = 0.8975	–	0.6 ± 0.013
